# Test results: patent US20120157472A1, “METHOD FOR TREATING COLORECTAL CANCER” (BOEHRINGER INGELHEIM INTERNATIONAL GMBH, priority 2009, published 2012)
# Entries after “also recorded” stand apart in the source; their conditions may differ.
# Experiments:
# [1] = test system: HT-29 colorectal xenografts; assay: Tumor growth inhibition in mice with HT-29 colorectal xenografts; assay type: in vivo; details: single agent, daily 10 mg/kg p.o., HT-29 xenografts, sub-optimal dose
# Description: (§1) A panel of 14 well-characterized human colorectal cancer cell lines were used to characterize the in vitro effects of BIBF 1120 (B1), BIBW 2992 (B2) and their combinations. The antitumor effects of the 2 drugs were evaluated in mice with HT-29 colorectal xenografts.
# The tumor growth inhibitory activities of B1 and B2 were determined for HT-29 xenografts after daily drug administration (10 mg/kg p.o.) or, for control animals, by oral administration of the solvent. […] Since the studies were designed to detect additive or synergistic interactions between the two drugs in subsequent experiments, only sub-optimal doses were used in these studies. Each group represents at least seven mice.
# The tumor growth inhibitory activities of B1 and B2 were determined for HT-29 xenografts after daily drug administration (10 mg/kg p.o.) or, for control animals, by oral administration of the solvent.
# [2] = test system: angiogenesis; assay: Angiogenesis inhibition by CD31 staining; assay type: in vivo
# [3] = test system: human colorectal cancer cell lines; assay: In vitro effects on human colorectal cancer cell lines; assay type: cell-based; details: for cytotoxic activity: conclusion, single agent; for growth inhibition / cell cycle effect: exposure of colorectal cancer cells to single agent
# Description: as §1
Structure (SMILES),tumor growth inhibitory activity (tumor volume over treatment time) [1],inhibition of angiogenesis [2],cytotoxic activity [3],growth inhibition / cell cycle effect [3]
"COC(=O)c1ccc2c(c1)NC(=O)/C2=C(\Nc1ccc(N(C)C(=O)CN2CCN(C)CC2)cc1)c1ccccc1 [B1, 3-Z-[1-(4-(N-((4-methyl-piperazin-1-yl)-methylcarbonyl)-N-methyl-amino)-anilino)-1-phenyl-methylene]-6-methoxycarbonyl-2-indolinone]",exhibit growth inhibitor activity,inhibited angiogenesis; also recorded: antiangiogenic activity,cytotoxic,growth inhibition linked to extensive G1 arrest
"CN(C)C/C=C/C(=O)Nc1cc2c(Nc3ccc(F)c(Cl)c3)ncnc2cc1O[C@H]1CCOC1 [B2, 4-[(3-chloro-4-fluorophenyl)amino]-6-{[4-(N,N-dimethylamino)-1-oxo-2-buten-1-yl]amino}-7-((S)-tetrahydrofuran-3-yloxy)-quinazoline]",exhibit growth inhibitor activity,inhibited angiogenesis; also recorded: antiangiogenic activity,cytotoxic,growth inhibition linked to extensive G1 arrest
